From patent US10166203B2, “Pharmaceutical composition for treating cancer including 2-methoxy-4-(3-(4-methoxyphenyl)prop-1-en-1-yl)phenol as active ingredient” (CHUNGBUK NATIONAL UNIVERSITY INDUSTRY-ACADEMIC COOPERATION …, priority 2015, dated 2019)
Values after ≈ are worked out from the molar mass of the structure shown.

Key:
SW480 cells [1] = experiment: Cell viability analysis using MTT assay; type: cell-based, human
Procedure: The human colon cancer cell line, SW480, was purchased from the American Type Culture Collection (Manassas, Va., USA) and cultured in an RPMI (Roswell Park Memorial Institute)-1640 medium (Gibco-BRL) to which 10% heat-inactivated fetal bovine serum (FBS) and penicillin/streptomycin at 37° C. humidified atmosphere of 5% CO2. The cells were cultured in a 100 mm culture dish at a concentration of 4×10^5 cells for experiments.
The influence of 2-methoxy-4-(3-(4-methoxyphenyl)prop-1-en-1-yl)phenol (MMPP) on the viability of cells was confirmed by colorimetric and metabolic activity assay using MTT [3-(4,5-dimethylthiazol-2-yl)-2,5-diphenyltetrazolium bromide]. Put briefly, cells were inoculated on 96-well plates at 1×10^4 cells/well and cultured for 24 hours. Cells were treated with 2.5 to 10 μg/ml MMPP or DMSO (dimethyl sulfoxide), a solvent for MMPP. After culturing for 24 hours, the medium including MMPP was removed and replaced with 100 μl of fresh medium. After culturing for 1.5 hours, medium including MTT was removed and 200 μl DMSO was added to each well. The plate was then agitated at a weak intensity until the color reaction of the plate became uniform. Colorimetric evaluation was performed using a microplate reader at 540 nm.
The inhibitory effect of MMPP on the growth of human colon cancer cells was examined using SW480 cells.

SW480 cells [2] = experiment: Western blot analysis of cell cycle regulatory and apoptosis signal proteins; type: cell-based, human
Procedure: Lysates, cytosolic and nuclear extracts of whole cells were obtained. SDS-PAGE and western blot analysis were performed as described in published documents 1 and 2 [1, 2]. Put briefly, the cells of 5×10^5 cells/well were inoculated in 6-well plates and cultured for 24 hours. Cells were then treated with MMPP or DMSO for 24 hours. The treated cells were washed twice with PBS and lysed. Proteins from the lysed cells were separated on 10 to 15% SDS-PAGE. Proteins were transferred to a PVDF membrane and the PVDF membrane was blocked with TBS/T-buffer including 5% defatted milk for 2.5 hours at room temperature. The membrane to which the proteins are transferred was analyzed by using a mouse monoclonal antibody for as a primary antibody. Protein expression was visualized using a chemiluminescence reagent (Amersham Pharmacia Biotech, Inc., Buckinghamshire, UK) and measured using a in which a CCD camera (Fusion-FX, Fisher BioTech, Ltd., Wembley, Australia) is installed.
2. Effect of MMPP on Cell Cycle Regulatory Signal and Apoptosis Signal In order to investigate the basic mechanism of the growth inhibitory effect of colon cancer cells of MMPP, it was examined whether MMPP treatment affects cell cycle regulation and apoptosis signals in SW480 cells.

STAT3 = biological target: T1, STAT3 (Homo sapiens, UniProt P40763); experiment: DNA binding activity of STAT3 using EMSA; type: cell-based; conditions: SW480 cells exposed for 1 hour
T1 construct: endogenous in cells; host or cells: SW480 cells (nuclear extract)
Procedure: The DNA binding activity of STAT3 was measured using an electrophoretic mobility shift assay (EMSA) as described in document 1. Put briefly, cells were cultured in a 100 mm culture dish at 37° C. for 24 hours and then treated with MMPP or DMSO. After incubation for 24 hours, the cells were washed three times with cold PBS and nuclear extracts for EMSA experiments were prepared. Relative thickness of the DNA-protein binding band was quantified using Lab Works 4.0 software (UVP Inc., Upland, Calif., USA) after scanning with densitometry.
In order to determine whether MMPP reacted with STAT3 to inhibit DNA binding activity of STAT3, MMPP was exposed to SW480 cells for 1 hour and the DNA binding activity of STAT3 was measured.

SW480 xenografted mouse = experiment: Anticancer activity in a colon cancer xenograft animal model; type: in vivo; conditions: twice a week for 3 weeks, nude mice

T1 sequence (P40763 whole entry): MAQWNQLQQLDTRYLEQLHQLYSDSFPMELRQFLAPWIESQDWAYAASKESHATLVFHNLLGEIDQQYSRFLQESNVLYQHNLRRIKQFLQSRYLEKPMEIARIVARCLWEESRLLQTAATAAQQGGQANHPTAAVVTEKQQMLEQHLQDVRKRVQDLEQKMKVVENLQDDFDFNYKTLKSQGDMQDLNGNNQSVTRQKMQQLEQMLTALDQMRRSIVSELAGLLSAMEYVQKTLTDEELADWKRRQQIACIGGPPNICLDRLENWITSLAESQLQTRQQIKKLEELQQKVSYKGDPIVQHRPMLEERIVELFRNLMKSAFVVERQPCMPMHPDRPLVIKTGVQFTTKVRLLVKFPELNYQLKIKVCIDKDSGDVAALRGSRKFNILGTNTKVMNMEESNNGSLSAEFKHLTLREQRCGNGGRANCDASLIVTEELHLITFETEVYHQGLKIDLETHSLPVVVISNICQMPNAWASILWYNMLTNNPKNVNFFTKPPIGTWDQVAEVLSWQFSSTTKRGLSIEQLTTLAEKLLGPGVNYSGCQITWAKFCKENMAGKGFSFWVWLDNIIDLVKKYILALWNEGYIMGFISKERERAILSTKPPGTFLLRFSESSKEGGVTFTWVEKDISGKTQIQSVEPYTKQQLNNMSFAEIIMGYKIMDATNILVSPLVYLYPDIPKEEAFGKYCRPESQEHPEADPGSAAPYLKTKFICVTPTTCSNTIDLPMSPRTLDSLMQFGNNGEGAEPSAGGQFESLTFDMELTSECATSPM

Compound: COc1ccc(C/C=C/c2ccc(O)c(OC)c2)cc1 [MMPP, 2-methoxy-4-(3-(4-methoxyphenyl)propyl-1-en-1-yl)phenol]
- cell density compared to the control group (SW480 cells [1]): significantly reduced cell density
- IC50 (SW480 cells [1]; Homo sapiens, MMPP 2.5 to 10 μg/ml, treated for 24 hours, MTT, read-out: IC50 value, inhibition of the growth of SW480 cells): 5.9 µg/mL (≈ 21.8 µM)
- expression of cell cycle regulatory signal proteins (SW480 cells [2]): effectively reduced the expression
- expression of pro-apoptotic proteins cleaved caspase-3, cleaved caspase-8 and Bax (SW480 cells [2]): increased the expression
- expression of the anti-apoptotic protein Bcl-2 (SW480 cells [2]): reduced the expression
- DNA binding activity of STAT3 (STAT3): effectively inhibited DNA binding activity of STAT3
- Tumor volume compared to the control group (SW480 xenografted mouse; 2.5 mg/kg intraperitoneal): 65%
- Tumor volume compared to the control group (SW480 xenografted mouse; 5 mg/kg intraperitoneal): 35%
